# Source: PubChem BioAssay (NCI)
#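 Test compounds were applied to cells in 96-well plates for 48 hours at 5 doses. At the TGI there is no net growth.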
# Legend:
# Experiment in all cases: NCI tumour cell line growth inhibition, 48 h
# LXFL 529 NSCLC = tested on: LXFL 529 NSCLC
# SNB-78 CNS = tested on: SNB-78 CNS
# U251 CNS = tested on: U251 CNS
# PC-3 prostate = tested on: PC-3 prostate
# M19-MEL melanoma = tested on: M19-MEL melanoma
# MCF7 breast = tested on: MCF7 breast
# TK-10 renal = tested on: TK-10 renal
# DMS 114 small cell lung = tested on: DMS 114 small cell lung
# K-562 leukemia = tested on: K-562 leukemia
# SK-MEL-28 melanoma = tested on: SK-MEL-28 melanoma
# SNB-75 CNS = tested on: SNB-75 CNS
# UO-31 renal = tested on: UO-31 renal
# SF-295 CNS = tested on: SF-295 CNS
# DU-145 prostate = tested on: DU-145 prostate
# BT-549 breast = tested on: BT-549 breast
# CAKI-1 renal = tested on: CAKI-1 renal
# M14 melanoma = tested on: M14 melanoma
# COLO 205 colon = tested on: COLO 205 colon
# HOP-18 NSCLC = tested on: HOP-18 NSCLC
# OVCAR-8 ovarian = tested on: OVCAR-8 ovarian
# MDA-N = tested on: MDA-N
# NCI-H23 lung = tested on: NCI-H23 lung
# ACHN renal = tested on: ACHN renal
# KM20L2 colon = tested on: KM20L2 colon
# MDA-MB-231 breast = tested on: MDA-MB-231 breast
# CCRF-CEM leukemia = tested on: CCRF-CEM leukemia
# HCT-15 colon = tested on: HCT-15 colon
# RXF 393 renal = tested on: RXF 393 renal
# T-47D breast = tested on: T-47D breast
# SR leukemia = tested on: SR leukemia
# SK-OV-3 ovarian = tested on: SK-OV-3 ovarian
# RPMI-8226 leukemia = tested on: RPMI-8226 leukemia
# MOLT-4 leukemia = tested on: MOLT-4 leukemia
# SK-MEL-2 melanoma = tested on: SK-MEL-2 melanoma
# HOP-62 NSCLC = tested on: HOP-62 NSCLC
# HCC-2998 colon = tested on: HCC-2998 colon
# XF 498 CNS = tested on: XF 498 CNS
# HOP-92 NSCLC = tested on: HOP-92 NSCLC
# LOX IMVI melanoma = tested on: LOX IMVI melanoma
# A549 NSCLC = tested on: A549 NSCLC
# OVCAR-3 ovarian = tested on: OVCAR-3 ovarian
# HL-60(TB) leukemia = tested on: HL-60(TB) leukemia
# OVCAR-4 ovarian = tested on: OVCAR-4 ovarian
# EKVX NSCLC = tested on: EKVX NSCLC
# OVCAR-5 ovarian = tested on: OVCAR-5 ovarian
# SNB-19 CNS = tested on: SNB-19 CNS
# UACC-62 melanoma = tested on: UACC-62 melanoma
# SF-268 CNS = tested on: SF-268 CNS
# SK-MEL-5 melanoma = tested on: SK-MEL-5 melanoma
# SN12C renal = tested on: SN12C renal
# SW-620 colon = tested on: SW-620 colon
# SF-539 CNS = tested on: SF-539 CNS
# IGROV1 ovarian = tested on: IGROV1 ovarian
# DLD-1 colon = tested on: DLD-1 colon
# NCI-H522 lung = tested on: NCI-H522 lung
# HT29 colon = tested on: HT29 colon
# UACC-257 melanoma = tested on: UACC-257 melanoma
# MDA-MB-435 = tested on: MDA-MB-435
# DMS 273 small cell lung = tested on: DMS 273 small cell lung
# HCT-116 colon = tested on: HCT-116 colon
# MALME-3M melanoma = tested on: MALME-3M melanoma
# 786-0 renal = tested on: 786-0 renal
# NCI-H226 lung = tested on: NCI-H226 lung
# HS 578T breast = tested on: HS 578T breast
# KM12 colon = tested on: KM12 colon
# A498 renal = tested on: A498 renal
# NCI-H460 lung = tested on: NCI-H460 lung
structure (smiles),measurement,setting,value
CC(C)Cc1ccc(C(C)/C=C2\CCC(CN3CCCCC3)C2=O)cc1 (configuration not stated),TGI,LXFL 529 NSCLC,3.55 µM
same,TGI,SNB-78 CNS,35.1 µM
same,TGI,U251 CNS,4.94 µM
same,TGI,PC-3 prostate,17.5 µM
same,TGI,M19-MEL melanoma,6.08 µM
same,TGI,MCF7 breast,4.08 µM
same,TGI,TK-10 renal,8.95 µM
same,TGI,DMS 114 small cell lung,4.78 µM
same,TGI,K-562 leukemia,9.19 µM
same,TGI,SK-MEL-28 melanoma,11 µM
same,TGI,SNB-75 CNS,33.7 µM
same,TGI,UO-31 renal,23.7 µM
same,TGI,SF-295 CNS,26.5 µM
same,TGI,DU-145 prostate,31 µM
same,TGI,BT-549 breast,34.4 µM
same,TGI,CAKI-1 renal,20.4 µM
same,TGI,M14 melanoma,18.2 µM
same,TGI,COLO 205 colon,15.6 µM
same,TGI,HOP-18 NSCLC,30.6 µM
same,TGI,OVCAR-8 ovarian,12.8 µM
same,TGI,MDA-N,12.8 µM
same,TGI,NCI-H23 lung,20.8 µM
same,TGI,ACHN renal,19.9 µM
same,TGI,KM20L2 colon,29.1 µM
same,TGI,MDA-MB-231 breast,17.2 µM
same,TGI,CCRF-CEM leukemia,5.51 µM
same,TGI,HCT-15 colon,7.29 µM
same,TGI,RXF 393 renal,5.73 µM
same,TGI,T-47D breast,45.5 µM
same,TGI,SR leukemia,8.23 µM
same,TGI,SK-OV-3 ovarian,34.9 µM
same,TGI,RPMI-8226 leukemia,6.65 µM
same,TGI,MOLT-4 leukemia,5.7 µM
same,TGI,SK-MEL-2 melanoma,27 µM
same,TGI,HOP-62 NSCLC,17.6 µM
same,TGI,HCC-2998 colon,17.7 µM
same,TGI,XF 498 CNS,16 µM
same,TGI,HOP-92 NSCLC,30.4 µM
same,TGI,LOX IMVI melanoma,3.99 µM
same,TGI,A549 NSCLC,39.9 µM
same,TGI,OVCAR-3 ovarian,11 µM
same,TGI,HL-60(TB) leukemia,5 µM
same,TGI,OVCAR-4 ovarian,14.2 µM
same,TGI,EKVX NSCLC,21.1 µM
same,TGI,OVCAR-5 ovarian,31.6 µM
same,TGI,SNB-19 CNS,19.6 µM
same,TGI,UACC-62 melanoma,24.2 µM
same,TGI,SF-268 CNS,8.29 µM
same,TGI,SK-MEL-5 melanoma,27 µM
same,TGI,SN12C renal,4.44 µM
same,TGI,SW-620 colon,13.4 µM
same,TGI,SF-539 CNS,11.4 µM
same,TGI,IGROV1 ovarian,9.05 µM
same,TGI,DLD-1 colon,5.13 µM
same,TGI,NCI-H522 lung,2.9 µM
same,TGI,HT29 colon,15.9 µM
same,TGI,UACC-257 melanoma,26.4 µM
same,TGI,MDA-MB-435,28.2 µM
same,TGI,DMS 273 small cell lung,7.2 µM
same,TGI,HCT-116 colon,12.7 µM
same,TGI,MALME-3M melanoma,31.1 µM
same,TGI,786-0 renal,3.38 µM
same,TGI,NCI-H226 lung,32.2 µM
same,TGI,HS 578T breast,45.6 µM
same,TGI,KM12 colon,6.36 µM
same,TGI,A498 renal,28.2 µM
same,TGI,NCI-H460 lung,66.1 µM
